Reference: ChEMBL document CHEMBL6103605, “Discovery of First-in-Class BAZ2A/B and BAZ2B-Selective Degraders” (ACS Med Chem Lett, 2025)

Key:
[1] = molecular target: Bromodomain adjacent to zinc finger domain protein 2B (Homo sapiens, UniProt Q9UIF8)
Description: Binding affinity to BAZ2B bromodomain (unknown origin) assessed as dissociation constant by BROMOscan technology

[2] = molecular target: von Hippel-Lindau disease tumor suppressor/Bromodomain adjacent to zinc finger domain protein 2A (Homo sapiens, UniProt Q9UIF9+P40337); assay: PROTAC activity at BAZ2A/VHL in human PC-3 cells assessed as degradation after 4 hrs by Western blot analysis
[3] = molecular target: Bromodomain adjacent to zinc finger domain protein 2A (Homo sapiens, UniProt Q9UIF9)
Description: Binding affinity to BAZ2A bromodomain (unknown origin) assessed as dissociation constant by BROMOscan technology

[4] = molecular target: von Hippel-Lindau disease tumor suppressor/Bromodomain adjacent to zinc finger domain protein 2B (Homo sapiens, UniProt Q9UIF8+P40337); assay: PROTAC activity at BAZ2B/VHL in human PC-3 cells assessed as degradation after 4 hrs by Western blot analysis
[5] = molecular target: von Hippel-Lindau disease tumor suppressor/Bromodomain adjacent to zinc finger domain protein 2A (Homo sapiens, UniProt P40337+Q9UIF9); assay: PROTAC activity at BAZ2A/VHL in human PC-3 cells assessed as BAZ2A degradation after 4 hrs by Western blot analysis
[6] = Induction of BAZ2A level in human PC-3 cells measured after 4 hrs by Western blot analysis; settings: PC-3, 4 h

SMILES | Kd [1] | DC50 [2] | Kd [3] | DC50 [4] | EC50 [5] | EC50 [6]
Cn1cc(CCn2c(CO)nc(-c3cnn(C)c3)c2-c2ccc(C#N)cc2)cn1 | 9.2 nM |  |  |  |  | 
COCc1nc(-c2cnn(C)c2)c(-c2ccc(C#N)cc2)n1CCc1cnn(C)c1 | 10 nM |  |  |  |  | 
Cc1ncsc1-c1ccc(CNC(=O)[C@@H]2C[C@@H](O)CN2C(=O)[C@@H](NC(=O)C2(F)CC2)C(C)(C)SC[C@H]2CC[C@H](COCc3nc(-c4cnn(C)c4)c(-c4ccc(C#N)cc4)n3CCc3cnn(C)c3)CC2)cc1 | 16 nM | 180 nM | 4.8 nM | 250 nM |  | 
Cc1ncsc1-c1ccc(CNC(=O)[C@@H]2C[C@@H](O)CN2C(=O)[C@@H](NC(=O)C2(F)CC2)C(C)(C)C)c(OC[C@H]2CC[C@H](COCc3nc(-c4cnn(C)c4)c(-c4ccc(C#N)cc4)n3CCc3cnn(C)c3)CC2)c1 | 51 nM |  | 4.7 nM | 19 nM | 35 nM | 35 nM
